Experimental data published in patent publication US20150160214A1, “Quantitation of Cellular Adhesion Dynamics Across Immobilized Receptors Under Rheological Shear Flow” (Mayo Foundation for Medical Education and Research, priority 2013, published 2015).
Values joined by “and” are separate entries in the source; they are usually repeats but may differ in a detail not shown here. Identical values can stand only once.

Legend:
[1] = molecular target: T1, platelet GP1bα (Homo sapiens, UniProt P04275); assay: Platelet pause times and translocation velocities on immobilized A1 under shear flow, parallel-plate flow chamber (Example 1); assay type: cell-based
T1 construct: perfused at low shear to enable platelets to attach to the surface immobilized domains; endogenous in cells; host or cells: platelets in citrated whole blood of healthy donors
From the text: (§1) To understand the effect of the N-terminal peptide on the function of the A1-domain of vWF, the protein was expressed with (A1-1238) and without the N-terminal peptide (A1-1261). The inventor used a flow chamber to measure the dynamics of platelet interactions with A1-1238 and A1-1261. Each domain variant was immobilized on glass slides with a modified Cu^2+ chelating chemistry that enabled surface capture via the N-terminally fused histidine tag. This method ensured reproducible capture of the proteins eliminating possible structural issues associated with nonspecific immobilization on plastic or glass. The slides were completely inert to platelets. Next, 1 mL of citrated whole blood followed by Tris buffered saline was perfused at low shear to enable platelets to attach to the surface immobilized domains. After red cells were perfused away with buffer, the translocation of the remaining attached platelets over the surfaces was recorded at each shear rate and the velocities and pause times calculated from the coordinate data of each platelet on the surface as described in the methods. […] In addition, the translocation velocities were increased for A1-1238 relative to A1-1261. To determine if this N-terminal sequence could inhibit the catch bond when free in solution, the inventor incubated surface immobilized A1-1261 with excess free peptide and added the free peptide to 1 mL of whole blood and to our perfusion buffer and performed the assay.
(§2) Determination of platelet pause times. Determination of platelet pause times A Glycotech† rectangular parallel-plate flow chamber was mounted to slides with a chelated Cu 21 surface obtained from Microsurfaces Inc. # to which the A1-1261 and A1-1238 domains in TBS were immobilized by the 63His-Tag. Citrated whole blood (1 mL) obtained from informed consent of healthy donors with approval from the Baylor College of Medicine institutional review board followed by buffer was perfused through the chamber at 300s21 for A1-1261 and 700s21 for A1-1238 shear rate to attach platelets to the surface immobilized proteins using a syringe driven variable flow rate pump. The shear was increased incrementally and 1 min movies were recorded at 25 frames/s in phase contrast with 232 pixel binning on a Zeiss Axiocam MRm camera attached to a Zeiss Axio Observer D1 inverted microscope. Tracking analysis was performed using Mediacybernetics ImagePro Premier§. The resulting X-Y coordinate data for each platelet track was differentiated into instantaneous velocities using a Savitzky-Golay algorithm (Savitzky:1964) with a five data point window size and a second-order polynomial implemented into a Mathamatica notebook. These platelet tracks were retained for statistical analysis if the platelet was present for at least 1 s and travelled a total distance greater than 1 lm. Distance travelled in pixels was converted to lm given the camera pixel size=6.45 μm^2, pixel binning, and microscope magnification=400×. Pause times were determined by the amount of time (seconds) a platelets velocity was =0±0.13 μm/s, within the noise. Pause times for all platelet tracks are reported as the mean of the medians. Examples of this analysis for individual platelets and for multiple platelets are provided in the Supporting Information.
(§3) Frame by frame platelet trajectory analysis. Tracking coordinates of individual platelets in units of pixels were exported from ImagePro Premier as a text file and imported into a Mathematica notebook that calculates a Savitzky-Golay first derivative of the total distance traveled over time (Savitzky:1964). The distance was calculated from the X and Y coordinates with the following equation.
(§4) Pause times were determined from the length of time the platelet velocity remained within 0±4 pixel/sec=0.129 μm/sec as illustrated in FIG. 8B. Median pause times were calculated from velocity time profiles for all platelet tracks, stored in a list and translated to histograms for multiple platelets. […]

[2] = test system: T2, platelet GP1bα (Homo sapiens); assay: as above; assay type: cell-based; conditions: 300 μM peptide incubated with immobilized A1-1261; 66 μM in whole blood and buffer
T2 construct: perfused at low shear to enable platelets to attach to the surface immobilized domains; endogenous in cells; host or cells: platelets in citrated whole blood of healthy donors
T2 sequence (P04275 1261-1471): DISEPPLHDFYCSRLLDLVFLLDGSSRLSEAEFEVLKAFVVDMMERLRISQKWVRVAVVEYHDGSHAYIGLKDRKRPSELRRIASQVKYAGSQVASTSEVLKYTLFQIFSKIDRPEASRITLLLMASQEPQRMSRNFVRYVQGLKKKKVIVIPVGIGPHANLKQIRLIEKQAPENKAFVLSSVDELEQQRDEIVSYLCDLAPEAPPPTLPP
From the text: as §1, §2, §3, §4

[3] = Far-UV CD spectra, secondary structure content (Example 1); assay type: physicochemical; conditions: free in solution
From the text: Both proteins show a spectrum dominated by relatively high α-helical content as indicated by the two minima at λ=222 nm and 208 nm. […] By contrast, the spectrum of the N-terminal peptide is dominated by the contribution of random coil-structure and spectrally equivalent to a peptide containing a scrambled sequence but identical amino acid composition.

[4] = molecular target: T3, A1-1261 (Homo sapiens, UniProt P04275); assay: Binding of free N-terminal peptide to A1-1261 from thermal unfolding enthalpy (tryptophan fluorescence)
T3 construct: A1-1261 (amino acids D1261-P1471); made in house
From the text: This would imply a specific interaction between this N-terminal sequence and the A1 domain when covalently linked in sequence. The only way to examine such a stabilization using spectroscopy was the measurement of thermal unfolding via fluorescence. Since the N-terminal peptide also contains a single tyrosine residue, the excitation wavelength was changed to λ=295 nm in order to measure tryptophan fluorescence and the effect of the peptide on the unfolding of the A1-domain was observed indirectly. Thermal scans of 2 μM A1-1261 were performed as a function of increasing amounts of the N-terminal peptide at 2° Celsius/min. […] Thermal scans were also done in the presence of a peptide with the same amino acid composition, but a scrambled sequence. The inset of FIG. 7A compares the raw fluorescence thermal scans in the presence of 300 μM scrambled and N-terminal peptides. Unfolding in the presence of excess scrambled peptide was equivalent to unfolding in the absence of either peptide. […] Fitting the enthalpy data to a simple single site binding model yields a dissociation constant of ≈46±6 μM.
Prior to all spectroscopic thermal scans, protein samples were equilibrated at 10° Celsius for 15 min to obtain a stable baseline. CD thermal scans between 10 and 95° Celsius were recorded at λ=222 nm using a protein concentration of 1 or 2 μM in a 1 cm quartz cell under moderate stirring. Scan rates were 0.5, 1.0, 1.5 and 2.0° Celsius/min. Integration time for each data point was 20 s with a 1 nm bandwidth. Fluorescence thermal scans between 10 and 95 Celsius were recorded at an emission λ=359 nm after excitation λ=280 nm or λ=295 nm using 2 μM protein in a 1 cm quartz cell with moderate stirring. Scan rates were 0.4 or 0.6, 0.9, 1.6 and 2.0° Celsius/min. At each temperature, relative fluorescence intensity was collected for 4 s and averaged. Thermal scans in the presence of N-terminal peptide at 2.0° Celsius/min were preceded by 1 h incubations at 20° Celsius with 0.02-300 μM peptide.
For the thermal unfolding studies in the presence of peptide, the inventor treated the change in enthalpy of unfolding, ΔHT*^‡ as an observable directly proportional to the degree of binding, X, because the T* was not dependent on peptide concentration.
For the simple single site binding model, A1+P<->A1P, where P is the peptide, the degree of binding is given by
where K is the binding affinity and the free peptide, [P], concentration is given in terms of the total protein, A1T, and peptide, PT, concentrations.

## H-QEPGGLVVPPTDAPVSPTTLYVE-OH [N-terminal peptide]
[1]; 300 μM peptide incubated with immobilized A1-1261, 66 μM in whole blood and buffer
  Effect of free peptide on platelet translocation velocities on immobilized A1-1261: increase in translocation velocities
[1]; free peptide added
  Effect of free peptide on platelet pause times or translocation velocities on immobilized A1-1238: did not significantly change the pause times or translocation velocities
[2]
  Effect of free peptide on platelet pause times on immobilized A1-1261: significant decrease in pause times
[3]
  β and random coil content of the sequence: > 80%
[4]
  Effect of peptide on unfolding enthalpy of A1-1238: did not change the unfolding enthalpy
[4]; single site binding model fit to unfolding enthalpy, 2 μM A1-1261, 2° Celsius/min, read-out: Dissociation constant (KD) of N-terminal peptide binding to A1-1261
  Kd: 46 µM and ~46 µM
